Experimental data: ChEMBL document CHEMBL4219119, “Benzoxazin-4-ones as novel, easily accessible inhibitors for rhomboid proteases” (Bioorg Med Chem Lett, 2018)
The source made the active and inactive calls. No cut-off for these calls is given here.

Legend:
Escherichia coli [1] = test: Competitive inhibition of Escherichia coli rhomboid GlpG assessed as residual enzyme activity at 100 uM preincubated for 30 mins followed by FP-Rh addition measured after 1 hr by gel-based ABPP method
[2] = Inhibition of bovine trypsin using Z-GGR-AMC as substrate preincubated for 30 mins followed by substrate addition measured for 20 mins by fluorescence assay; parameters: species or system Bos taurus
[3] = Inhibition of bovine chymotrypsin using Suc-AAF-AMC as substrate preincubated for 30 mins followed by substrate addition measured for 20 mins by fluorescence assay; parameters: species or system Bos taurus
Escherichia coli [4] = test: (§1) Inhibition of rhomboid GlpG in Escherichia coli MC4100 outer membrane permeabilized mutant containing delta-lptD4213 preincubated for 15 mins followed by pPR61 (pD881-SR_MBP-LacYTM2-Trx) substrate addition measured after 4 hrs by fluorescence based Western blot
Rhomboid protease GluP = target: T1, Rhomboid protease GluP (Bacillus subtilis (strain 168), UniProt P54493); test: Competitive inhibition of Bacillus subtilis rhomboid YqgP preincubated for 30 mins followed by FP-Rh addition measured after 1 hr by gel-based ABPP method
T1 sequence (P54493 whole entry): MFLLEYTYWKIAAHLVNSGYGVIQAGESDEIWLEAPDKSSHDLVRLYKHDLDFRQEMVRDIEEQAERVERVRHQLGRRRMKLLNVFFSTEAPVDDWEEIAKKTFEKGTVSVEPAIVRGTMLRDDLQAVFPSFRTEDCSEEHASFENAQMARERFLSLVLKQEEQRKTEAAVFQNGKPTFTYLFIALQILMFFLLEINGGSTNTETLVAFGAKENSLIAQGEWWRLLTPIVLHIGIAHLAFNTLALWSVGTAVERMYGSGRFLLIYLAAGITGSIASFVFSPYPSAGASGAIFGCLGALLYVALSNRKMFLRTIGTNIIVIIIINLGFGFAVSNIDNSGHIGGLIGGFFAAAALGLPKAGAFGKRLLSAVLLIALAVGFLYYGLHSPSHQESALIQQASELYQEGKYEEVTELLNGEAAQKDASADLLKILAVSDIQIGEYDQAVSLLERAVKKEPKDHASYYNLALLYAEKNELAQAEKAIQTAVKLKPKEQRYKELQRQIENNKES

[5] = Competitive inhibition of Escherichia coli rhomboid GlpG preincubated for 30 mins followed by FP-Rh addition measured after 1 hr by gel-based ABPP method
[6] = target: T2, Rhomboid protease GluP (Bacillus subtilis (strain 168)) (UniProt P54493); test: Competitive inhibition of Bacillus subtilis rhomboid YqgP assessed as residual enzyme activity at 100 uM preincubated for 30 mins followed by FP-Rh addition measured after 1 hr by gel-based ABPP method
T2 sequence (whole entry): T1 sequence (P54493 whole entry)

Escherichia coli [7] = test: Irreversible inhibition of Escherichia coli rhomboid GlpG assessed as residual activity at 10 uM preincubated for 30 mins followed by excess drug removal for 0 to 240 mins before FP-Rh addition measured after 1 hr by ABPP method
Escherichia coli [8] = test: Competitive inhibition of Escherichia coli rhomboid GlpG at 100 uM preincubated for 30 mins followed by FP-Rh addition measured after 1 hr by gel-based ABPP method
[9] = target: T2, Rhomboid protease GluP (Bacillus subtilis (strain 168)); test: Competitive inhibition of Bacillus subtilis rhomboid YqgP at 100 uM preincubated for 30 mins followed by FP-Rh addition measured after 1 hr by gel-based ABPP method
[10] = Selectivity index, ratio of IC50 for competitive inhibition of Escherichia coli rhomboid GlpG to IC50 for competitive inhibition of Bacillus subtilis rhomboid YqgP
Escherichia coli [11] = test: Reversible inhibition of Escherichia coli rhomboid GlpG assessed as residual activity at 10 uM preincubated for 30 mins followed by excess drug removal for 30 mins before FP-Rh addition measured after 1 hr by ABPP method
Escherichia coli [12] = test: Reversible inhibition of Escherichia coli rhomboid GlpG assessed as residual activity preincubated for 30 mins followed by excess drug removal for 240 mins before FP-Rh addition measured after 1 hr by ABPP method
[13] = Selectivity index, ratio of IC50 for competitive inhibition of Bacillus subtilis rhomboid YqgP to IC50 for competitive inhibition of Escherichia coli rhomboid GlpG
[14] = as §1

Row | Structure (SMILES) | Activity (Escherichia coli [1]) [%] | IC50 [2] [µM] | IC50 [3] [µM] | IC50 (Rhomboid protease GluP) [µM] | IC50 [5] [µM] | Activity [6] [%] | inhibition (Escherichia coli [8]) | inhibition [9] | further results
1 | O=c1oc(OCc2ccccc2)nc2cccc(Cl)c12 | < 5 | < 0.1 | < 0.1 | 1.6 | 1.2 | < 5 |  |  | inhibition (Escherichia coli [4]): inactive; inhibition (Escherichia coli [7]): Active
2 | C#CCCOc1oc(=O)c2cc(N)ccc2c1Cl |  |  |  |  |  |  | Active | Active | 
3 | Cc1cccc2nc(OCCc3ccccc3)oc(=O)c12 |  |  |  |  |  |  | inactive | inactive | 
4 | C#CCOc1nc2cccc(Cl)c2c(=O)o1 | < 5 | 1.2 | 0.41 | 6.2 | 1.7 | < 5 | Active | Active | inhibition (Escherichia coli [4]): inactive; inhibition (Escherichia coli [7]): Active
5 | O=c1oc(OCc2ccccc2)nc2c(Cl)cccc12 | < 5 | < 0.1 | < 0.1 | 0.47 | 63 | < 5 |  |  | Ratio IC50 [10]: 130
6 | C#CCOc1nc2cccc(C)c2c(=O)o1 | < 5 | 1.1 | < 0.1 | 2.8 |  | < 5 |  |  | 
7 | O=c1oc(OCc2ccccc2)nc2ccccc12 | < 5 | < 0.1 | < 0.1 | 3.7 | 2.5 | < 5 |  |  | inhibition (Escherichia coli [4]): Active; inhibition (Escherichia coli [11]): inactive
8 | O=c1oc(OCc2ccccc2)nc2cc3ccccc3cc12 | < 5 | < 0.1 | < 0.1 | 7.3 | 2.4 | < 5 |  |  | 
9 | O=c1oc(Cl)c(Cl)c2ccccc12 |  |  |  |  |  |  |  |  | Activity (Escherichia coli [12]): 50%
10 | O=c1oc(OCCc2ccccc2)nc2cccc(Cl)c12 |  |  |  |  |  |  | inactive | inactive | 
11 | C#CCCCc1nc2cccc(Cl)c2c(=O)o1 |  |  |  |  |  |  | Active | Active | 
12 | CCOc1nc2cccc(Cl)c2c(=O)o1 | < 5 | < 0.1 | < 0.1 | 7.1 | 2.2 | < 5 |  |  | inhibition (Escherichia coli [4]): inactive; inhibition (Escherichia coli [7]): Active
13 | Cc1ccc2nc(OCc3ccccc3)oc(=O)c2c1 | < 5 | < 0.1 | < 0.1 | 4.6 |  | < 5 |  |  | 
14 | Cc1cccc2nc(OCc3ccccc3)oc(=O)c12 | < 5 | < 0.1 | < 0.1 | 15 | 1 | < 5 |  |  | Ratio IC50 [13]: 15; IC50 [14]: 8.5 µM; inhibition (Escherichia coli [7]): Active
15 | C#CCCCc1nc2cccc(C)c2c(=O)o1 |  |  |  |  |  |  | Active | Active | 
